Results on 2 compounds are retold here after patent US20190343822A1, “TREATMENT FOR GLAUCOMA” (INDIANA UNIVERSITY RESEARCH AND TECHNOLOGY CORPORATION, priority 2018, published 2019).

Data set [1] concerns mice. As to the kind of experiment: Intraocular pressure (IOP) in mice by rebound tonometry (Tonolab). Type of data set: in vivo. The protocol:
IOP was measured in mice by rebound tonometry, using a Tonolab (Icare Finland Oy, Helsinki, Finland). This instrument uses a light plastic-tipped probe to briefly make contact with the cornea; after the probe encounters the eye the instrument measures the speed at which the probe rebounds in order to calculate IOP.
(§1) To obtain reproducible IOP measurements, mice were anesthetized with isoflurane (3% induction). The anesthetized mouse was then placed on a platform in a prone position, where anesthesia was maintained with 2% isoflurane. Baseline fop measurements are taken in both eyes. A ‘measurement’ included the average value of six readings. One eye was then treated with drug (dissolved in Tocrisolve (Tocris Biosciences), a soya-based solvent, 5 μL final volume, applied topically) while the other eye was treated with vehicle. The animal was then allowed to recover. After an hour the animal was again anesthetized as above. IOP was then measured in the drug-treated and vehicle-treated contralateral eye.
IOP measurements following drug administration were analyzed by paired t-tests comparing drug-treated eyes to contralateral vehicle-treated eyes. Where animals were injected with drug, ocular pressures of animals were compared with those of vehicle-injected animals and compared using an unpaired t-test.

For data set [2], the system named is mice. The description is as above. Type of data set: in vivo. The source holds these as a separate data set.
A short description of data set [3]: Observation of signs of irritation after 7 days of daily topical treatment. It is filed as in vivo, mice. To be noted: after the 7 days of daily treatment, SR141716 1 mM topical. How it is done: as §1
The outcome of repeated daily treatment with SR1 was tested separately. […] The IOP was also lower in the vehicle treated eye but this difference was not statistically significant.

`O=C(Nc1ccc(Cl)cc1)Nc1cccc(-c2cccc(N3CCCC3)n2)c1` [PSNCBAM1, 1-(4-chlorophenyl)-3-(3-(6-(pyrrolidin-1-yl)pyridin-2-yl)phenyl)urea]: the “IOP (mm Hg±SEM) 1 hour after intraperitoneal injection” value with mice [1] (PSNCBAM1 4 mg/kg IP, 1 hour, n=16, baseline IOP 19.6±0.4, p<0.005, FIG. 3B) worked out at 17.3±0.5 mm Hg. Besides, the “IOP (mm Hg±SEM) in drug-treated eye after topical treatment” value with mice [1] (PSNCBAM1 5 mM topical, WT mice, n=8, not significant vs vehicle-treated eye 17.4±0.7, FIG. 3A) was found to be 18.0±0.6 mm Hg. In the data set on mice [1] (intraperitoneal injection, FIG. 3B), the “Effect of intraperitoneal injection on ocular pressure” value was “lowered ocular pressure”. The “Effect of topical treatment on ocular pressure relative to the contralateral eye” value with mice [1] (topical, WT mice, FIG. 3A) was “did not lower ocular pressure”.

Regarding `Cc1c(C(=O)NN2CCCCC2)nn(-c2ccc(Cl)cc2Cl)c1-c1ccc(Cl)cc1` [SR141716, 5-(4-Chlorophenyl)-1-(2,4-dichloro-phenyl)-4-methyl-N-(piperidin-1-yl)-1H-pyrazole-3-carboxamide], in the data set with mice [2] (SR141716 1 mM topical daily, 7 days, drug-treated eye, n=8, p<0.05, FIG. 4B), the “Δ IOP±SEM, drug-treated eye before 7th treatment (24 hours after 6th daily treatment)” value is on record as −2.9±1.0 mm Hg. For the same compound, in the data set on mice [2] (SR141716 1 mM topical, single treatment, 24 hrs, n=16, FIG. 4A), the “Δ IOP±SEM, effect at 24 hrs after a single treatment” value was −0.3±0.3 mm Hg. In the data set on mice [2] (SR141716 1 mM topical, single treatment, 48 hrs, n=16, p<0.005, FIG. 4A), the “Δ IOP±SEM, effect at 48 hrs after a single treatment” value was “+2.0±0.6 mm Hg”. Besides, in the data set on mice [1] (SR141716 1 mM topical, 7th day of daily treatment, n=8, p<0.005, FIG. 4C), the “Δ IOP±SEM, effect in drug-treated eye after seven days of daily treatment” value is −4.6±0.9 mm Hg. The “Δ IOP±SEM, effect at 1 day in drug-treated eye” value in the data set on mice [1] (SR141716 1 mM topical, day 1 of daily treatment, n=8, FIG. 4C) is −2.8±0.6 mm Hg. Moreover, the “Effect on intraocular pressure at midday, standard light cycle” value in the data set on mice [1] (SR141716 1 mM, midday, mice in standard light cycle, FIG. 1B) is “raised intraocular pressure”. Moreover, the “Effect on intraocular pressure at midnight, reverse light cycle” value with mice [1] (SR141716 1 mM, midnight, mice in reverse light cycle) is reported as “reduced intraocular pressure”. The “Effect of daily treatments on ocular pressure” value in the data set on mice [1] (daily treatments over 7 days, FIG. 2C) is reported as “sustained lower ocular pressure”. Further, the Signs of irritation result in data set [3] was “No signs of irritation were observed”.
